Like-named read-outs stand apart in the source and are kept apart here.
Columns and labels:
[1] = Neta et al. J. Phys. Chem. 1980; cited from earlier work
[2] = Pulse radiolysis: catalysis of the decay (dismutation) of O2.-, absorbance at 260 nm; format: biochemical; settings: for kcat at the plateau after repetitive pulsing: 20 mM formate, 2.4 mM phosphate pH 7.25; for kcat (in words): oxygenated solution; for kobs at the plateau: 10 μM O2.-, pH 7.25
Experimental: Pulse radiolysis experiments were carried out with a Varian (Palo Alto, Calif.) 7715 linear accelerator with 5 MeV electron pulses of 1.5 μs duration. The light source of the analyzing beam was a 200 W xenon lamp. The absorption spectra were measured were at room temperature in a 2 cm Spectrosil® cell, the beam passing the cell three times, for an optical path length of 6.1 cm. The dose was 6-19.4 Gy per pulse, as determined from the absorption of the superoxide ion, using G(O2.^−)=6.1 and ε260=1940 M^−1cm^−1, in pH 7.4 O2 saturated 2.4 mM phosphate buffer, containing 20 mM formate.
OsO4 (or its product) catalyzes the decay of the superoxide ion radical. The superoxide ion radical (pKa=4.8) was formed by pulse-irradiation of oxygenated pH 7.2-7.4 buffer solutions. The solutions contained either 0.02 M formate and 2.4 mM phosphate, or 0.2 M 2-PrOH and 12 mM phosphate. In some experiment 5-10 μM diethylenetriaminepentaacetic acid (DTPA) or catalase (75 u/ml) were added. In the presence of either formate or 2-PrOH. All of the primary radicals formed by the radiation (Equation 3) are converted into O2.^− via Reactions 4-7 when formate is added, and by Reactions 4, 8-10, when 2-PrOH is added. In Equation 3 the values in parentheses are the radiation-chemical yields of the species, defined as the number of species produced per 100 eV of absorbed energy γ.

[3] = test system: Phorbol Myristate Stimulated Murine Peritoneal Macrophages; settings: cited from earlier work
[4] = Pulse radiolysis: decay of carbonate radical CO3.-, absorbance at 600 nm; format: biochemical; settings: 0.6 M carbonate
Experimental: Methods. Pulse radiolysis experiments were carried out using a 5-MeV Varian 7715 linear accelerator (0.05-1.5 μs electron pulses, 200 mA current). All measurements were performed at room temperature in a 2-cm spectrosil cell, with three light passes (optical path length 6.1 cm). The formation and decay kinetics of the CO3− radical were tracked by measuring its absorption at 600 nm using ε600=1860 M^−1cm^−1.
Carbonate radical was generated by irradiating N2O-saturated (˜25 mM) aqueous solutions containing 0.1-0.6 M sodium carbonate (pKa(HCO3^−)=10, I=0.5 M) at pH 10.0 by reaction sequence 18-20 (the species radiation yields are in parentheses): […]

## Cc1cccc[n+]1[O-] [2-picoline N-oxide]
[1]
  k, reaction with .OH radicals: 3e+09 M⁻¹ s⁻¹

## K2OsCl6.2H2O Cl6 [OsCl6^2−]
[2]
  kcat at the plateau after repetitive pulsing: 4e+08 M⁻¹ s⁻¹

## CC(=O)OC[C@H]1O[C@@H]([S-])[C@H](OC(C)=O)[C@@H](OC(C)=O)[C@@H]1OC(C)=O.CCP(CC)CC.[Au+] [2,3,4,6-tetra-O-acetyl-1-thio-β-D-glucopyranosato-S (triethylphosphine)]
[3]; 10 μM concentration
  inhibition of the release of O2.- (in words): completely inhibited

## Cc1ccnc(-c2cc(C)ccn2)c1.Cc1ccnc(-c2cc(C)ccn2)c1.Cc1ccnc(-c2cc(C)ccn2)c1.[Os+2] [Os(dimebpy)^2+]
[2]
  kcat (in words): too low to be measured

## [Cl][Os][Cl].c1cnc2c(c1)ccc1cccnc12.c1cnc2c(c1)ccc1cccnc12 [dichlorobis(phenathroline) osmium(II)]
[3]; 10 μM concentration
  % inhibition of O2.- release: 24±4%

## bis(bipyridyl) dichloroosmium(II)
[3]; 10 μM concentration
  % inhibition of O2.- release: 2±2%

## [Cl][Os]([Cl])[Cl] [OsCl3, OsCl3.6H2O]
[2]; 1.65 μM OsCl3, after 40 pulses
  kobs at the plateau: 1700 s⁻¹
[2]
  kcat at the plateau after repetitive pulsing: 1.1e+09 M⁻¹ s⁻¹
[2]; 1.65 or 3.3 μM OsCl3, first pulse
  effect on rate of decay of O2.- in the first pulse: only a minor increase
[2]; 3.3 OsCl3, after 40 pulses
  kobs at the plateau: 3400 s⁻¹

## Cc1cc[n+]([O-])cc1 [4-picoline N-oxide]
[4]; 2 mM, 3 μM CO3.-
  shortening of the half-life of CO3.-: about 50%
[4]; pH 10.0
  rate constant of the reaction with CO3.-: about 3×10^4 M^−1s^−1
[1]
  k, reaction with .OH radicals: 3e+09 M⁻¹ s⁻¹

## octamminodinitrato-(μ-nitrido)-diosmium trinitrate
[3]; 100 μM concentration
  % inhibition of O2.- release: 29±6%

## CN(C)CCCN1CCC2(C[CH2][Ge]([CH3])([CH3])[CH2]C2)C1 [(N,N-dimethylaminopropyl)-2-aza-8,8-dimethyl-8-germanospiro-(4,5)-decane]
[3]; 10 μM concentration
  inhibition of the release of O2.- (in words): completely inhibited

## [Os+2].c1ccc(-c2ccccn2)nc1.c1ccc(-c2ccccn2)nc1.c1ccc(-c2ccccn2)nc1 [Os(bpy)3^2+]
[2]
  kcat (in words): too low to be measured

## Cc1ccc[n+]([O-])c1 [3-picoline N-oxide]
[1]
  k, reaction with .OH radicals: 3e+09 M⁻¹ s⁻¹

## [O-][n+]1ccccc1 [pyridine N-oxide]
[1]
  k, reaction with .OH radicals: 3e+09 M⁻¹ s⁻¹
